# Measured values taken from ChEMBL document CHEMBL1201862, “PubChem BioAssay data set” (2004).
# Several values for one entry are separate records, joined by “and”; a condition that tells them apart may be missing. Equal values may be shown once. Activity calls are given as the source filed them.
# Legend:
# Cytochrome P450 2C19 = Cytochrome P450 2C19 (Homo sapiens, UniProt P33261); experiment: Cytochrome panel assay with activity outcomes. Panel member name: p450-cyp2c19 Compounds with AC50 equal or less than 10 uM are considered active; type: functional
# Cytochrome P450 3A4 = Cytochrome P450 3A4 (Homo sapiens, UniProt P08684);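 note: CYP3A4 tested as one member of a cytochrome P450 panel screen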
# [1] = test system: Streptococcus sp. 'group A'; experiment: growth inhibition of control SK(-) GAS strain, dose response, counter-screen for streptokinase expression inhibitor project, luminescence, kanamycin, BacTiterGlo, confirmation (AID 1900); type: functional, organism-based
# Streptococcus = experiment: Group A Streptococcus viability loss, dose response, counter-screen for streptokinase expression inhibitor project, luminescence, BacTiterGlo (AID 1915); type: functional, organism-based;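 note: potency for reduction of bacterial viability or growth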
# [2] = Luminescence Cell-Based Dose Retest to Confirm Inhibitors of Cancer Stem Cells. [Related pubchem assays (depositor defined):AID2717, AID2721]; type: functional; conditions: Homo sapiens
# Cytochrome P450 2C9 = Cytochrome P450 2C9 (Homo sapiens, UniProt P11712)
# Cytochrome P450 1A2 = target: T1, Cytochrome P450 1A2 (Homo sapiens, UniProt P05177);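 note: PubChem cytochrome P450 panel assay, CYP1A2 panel member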
# T1 sequence (P05177 whole entry): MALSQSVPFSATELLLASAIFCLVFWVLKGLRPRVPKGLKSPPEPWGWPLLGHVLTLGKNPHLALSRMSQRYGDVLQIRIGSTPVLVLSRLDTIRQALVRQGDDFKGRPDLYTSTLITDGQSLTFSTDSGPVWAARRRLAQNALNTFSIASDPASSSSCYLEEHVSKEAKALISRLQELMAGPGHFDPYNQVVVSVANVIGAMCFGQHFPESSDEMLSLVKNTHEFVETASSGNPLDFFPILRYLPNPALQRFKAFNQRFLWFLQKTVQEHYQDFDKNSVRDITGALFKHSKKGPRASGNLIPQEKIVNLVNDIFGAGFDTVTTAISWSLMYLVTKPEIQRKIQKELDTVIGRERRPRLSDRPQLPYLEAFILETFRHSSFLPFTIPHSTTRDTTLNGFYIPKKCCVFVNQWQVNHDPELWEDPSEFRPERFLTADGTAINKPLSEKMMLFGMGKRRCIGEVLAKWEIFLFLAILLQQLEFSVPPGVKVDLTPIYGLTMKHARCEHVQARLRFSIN
# [3] = inhibitors of intracellular T. cruzi replication, confirmation, NIH3T3 host cells, beta-gal luminescence (AID 2044); type: functional, cell-based;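 note: intracellular parasites grown in NIH/3T3 mouse fibroblasts as host cells; luminescent beta-galactosidase reporter signal from transgenic T. cruzi replicating inside host cells; inhibitors lower the luminescence signal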
# [4] = cytotoxicity toward NIH3T3 fibroblasts, dose response, counter-screen, cell-based, ATP luminescence, mouse fibroblasts (AID 2010); type: functional;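 note: cells exposed to compound for about 90 hours before reading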
# Cytochrome P450 2C19, sequence (P33261 whole entry): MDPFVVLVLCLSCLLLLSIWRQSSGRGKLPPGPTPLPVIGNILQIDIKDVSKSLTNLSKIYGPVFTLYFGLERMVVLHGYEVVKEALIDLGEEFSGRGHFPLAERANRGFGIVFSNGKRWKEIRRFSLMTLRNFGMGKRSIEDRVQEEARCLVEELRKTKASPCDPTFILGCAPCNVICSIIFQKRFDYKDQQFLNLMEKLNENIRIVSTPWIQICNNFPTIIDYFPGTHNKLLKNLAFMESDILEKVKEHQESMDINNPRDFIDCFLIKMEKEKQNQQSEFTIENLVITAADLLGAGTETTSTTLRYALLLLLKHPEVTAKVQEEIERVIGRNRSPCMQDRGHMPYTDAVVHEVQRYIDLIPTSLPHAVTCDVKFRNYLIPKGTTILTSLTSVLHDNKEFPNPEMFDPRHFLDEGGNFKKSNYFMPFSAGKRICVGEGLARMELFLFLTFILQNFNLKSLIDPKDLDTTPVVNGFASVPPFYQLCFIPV
# Cytochrome P450 3A4, sequence (P08684 whole entry): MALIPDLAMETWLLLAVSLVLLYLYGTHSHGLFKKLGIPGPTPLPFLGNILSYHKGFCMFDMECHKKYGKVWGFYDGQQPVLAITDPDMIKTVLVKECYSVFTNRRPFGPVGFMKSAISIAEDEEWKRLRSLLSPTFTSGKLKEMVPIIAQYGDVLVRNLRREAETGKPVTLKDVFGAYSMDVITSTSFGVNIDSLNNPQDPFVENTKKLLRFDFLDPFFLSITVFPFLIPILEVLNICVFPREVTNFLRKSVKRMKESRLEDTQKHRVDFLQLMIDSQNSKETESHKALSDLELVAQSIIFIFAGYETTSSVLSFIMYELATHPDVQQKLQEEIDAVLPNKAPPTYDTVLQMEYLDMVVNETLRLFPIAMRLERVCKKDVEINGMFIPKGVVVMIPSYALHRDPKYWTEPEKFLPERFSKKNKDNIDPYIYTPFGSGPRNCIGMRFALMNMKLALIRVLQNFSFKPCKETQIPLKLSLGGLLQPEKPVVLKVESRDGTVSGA
# Cytochrome P450 2C9, sequence (P11712 whole entry): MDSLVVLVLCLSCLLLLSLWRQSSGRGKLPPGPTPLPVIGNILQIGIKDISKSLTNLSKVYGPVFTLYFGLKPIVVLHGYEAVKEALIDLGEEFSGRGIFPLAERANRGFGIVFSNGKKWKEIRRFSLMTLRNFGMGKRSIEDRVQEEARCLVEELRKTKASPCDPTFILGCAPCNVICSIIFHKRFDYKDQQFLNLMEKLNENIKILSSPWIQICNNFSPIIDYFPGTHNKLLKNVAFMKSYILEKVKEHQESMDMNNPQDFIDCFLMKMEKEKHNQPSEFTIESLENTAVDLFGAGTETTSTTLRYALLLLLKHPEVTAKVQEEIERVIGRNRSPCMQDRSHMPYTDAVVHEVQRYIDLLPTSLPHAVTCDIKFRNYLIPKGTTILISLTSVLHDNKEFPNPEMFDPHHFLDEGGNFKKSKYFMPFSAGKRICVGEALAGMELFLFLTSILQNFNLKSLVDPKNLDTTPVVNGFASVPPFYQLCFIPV
smiles,measurement,setting,value
COC(=O)c1c(-c2cc(OC)c(OC)c(OC)c2)c2ccc(OCc3ccccn3)cc2c(=O)n1-c1ccc(N)cc1,AC50,Cytochrome P450 2C19; read-out: AC50,10 µM (inconclusive)
Fc1ccc(CSc2nnc(-c3cc4c(s3)-c3ccccc3CC4)o2)cc1,AC50,Cytochrome P450 2C19,inconclusive
same,AC50,Cytochrome P450 3A4,15.8 µM (inconclusive)
CCc1c(C2(O)CCCCC2)[nH]c2c(C(=O)OC)cc(Cl)cc12,EC50,[1],2.62 µM (active)
same,EC50,Streptococcus,5.96 µM (active)
same,AC50,[2],1.89 µM (active)
COC(=O)CSc1ccc(C#N)c(SCC(=O)OC)c1,AC50,Cytochrome P450 2C9,20 µM (inconclusive)
Cc1cc(C)c(S(=O)(=O)NCC2CCC(C(=O)NCc3ccc4c(c3)OCO4)CC2)c(C)c1 (stereo unspecified),AC50,Cytochrome P450 1A2,17.8 µM (inconclusive)
O=C(NCC1CCCC(CNC(=O)Nc2ccc(Cl)cn2)C1)Nc1ccc(Cl)cn1 (stereo unspecified),EC50,[3],1.18 µM (active)
same,EC50,[4],> 60 µM (not active)
CN(C)CCCN(C(=O)/C=C/c1cccs1)c1nc2c(F)cccc2s1,EC50,[3],1.86 µM (active)
same,EC50,[4],> 60 µM (not active)
O=C(CCN1C(=O)C2C3C=CC(C3)C2C1=O)Nc1c(F)cccc1F (stereo unspecified),AC50,Cytochrome P450 2C19; read-out: AC50,39.8 µM (inconclusive)
COc1cccc(Nc2nc(N)nc(CCl)n2)c1,EC50,[3],1.7 µM (active)
same,EC50,[4],4.11 µM (active)
CC12CN3CC(C)(CN(C1)C3c1ccc([N+](=O)[O-])o1)C2=O (stereo unspecified),EC50,[3],0.784 µM (active)
same,EC50,[4],> 60 µM (not active)
CO[C@@H]1COC(=O)C/C=C\[C@@H](C)[C@H](OC)COC(=O)[C@H](COCc2ccccc2)NC(=O)C/C=C\[C@H]1C,AC50,Cytochrome P450 2C19; read-out: AC50,2 µM (inconclusive)
same,AC50,Cytochrome P450 3A4,5.01 µM (inconclusive)
O=C(NC1CCN(Cc2ccccc2)CC1)c1ccc(Cn2c(=S)[nH]c3ccc(N4CCOCC4)cc3c2=O)cc1,EC50,[3],1.3 µM (active)
same,EC50,[4],10.4 µM (active)
N#Cc1cccc(-c2ccc3ncnc(NC4CCNCC4)c3c2)c1,AC50,Cytochrome P450 2C19; read-out: AC50,25.1 µM (inconclusive)
O=C(CCN1CCc2ccccc2C1)Nc1ccc(F)cc1,AC50,Cytochrome P450 1A2,0.398 µM (inconclusive)
same,AC50,Cytochrome P450 3A4,15.8 µM (inconclusive)
CN1CCN(c2ncncc2-c2ccccc2Cl)CC1,AC50,Cytochrome P450 1A2,2.51 µM (inconclusive)
CC(=O)Nc1ccc(OCC(O)Cn2c3ccccc3c3ccccc32)c(C)c1 (stereo unspecified),EC50,[3],2.11 µM (active)
same,EC50,[4],9.57 µM (active)
Cc1c(-c2cccc(Cl)c2)nc2ccccc2c1C(=O)OC/C(O)=C(\C#N)c1nc2ccccc2[nH]1,EC50,[1],2.23 µM (active)
same,EC50,Streptococcus,2.6 µM (active)
same,AC50,[2],1.75 µM (active)
c1ccc(CNc2ncncc2-c2ccoc2)cc1,AC50,Cytochrome P450 2C9,0.501 µM (inconclusive)
COc1ccccc1CN1CCCC2(CCN(C(=O)c3cccn3C)CC2)C1,AC50,Cytochrome P450 3A4,20 µM (inconclusive)
O=C(c1ccc(C#CC2(O)CCCCC2)cc1)N1CCN(C(c2ccccc2)c2ccccc2)CC1,AC50,[2],0.482 µM (active)
CN1C(=O)C(C2c3ccccc3C(=O)N2Cc2ccc([N+](=O)[O-])cc2)C(=O)N(C)C1=O (stereo unspecified),AC50,Cytochrome P450 2C19; read-out: AC50,14.1 µM (inconclusive)
CCOCCCNCc1ccc(OCCC(C)C)c(OC)c1,EC50,[3],0.17 µM (active)
same,EC50,[4],> 60 µM (not active)
CN1CCN(c2nc(-c3ccoc3)nc3ccccc23)CC1,AC50,Cytochrome P450 3A4,20 µM (inconclusive)
C=CCNc1nc(Cl)nc(Nc2ccc(OC)cc2)n1,AC50,Cytochrome P450 2C19; read-out: AC50,0.224 µM (inconclusive)
COc1ccccc1N1CCN(C[C@@H](O)COc2cccc3ccccc23)CC1,AC50,Cytochrome P450 1A2,12.6 µM (inconclusive) and 31.6 µM (inconclusive) and 20 µM (inconclusive)
CN(C)CCCN(C(=O)COc1ccc(Cl)cc1)c1nc2c(F)cccc2s1,EC50,[3],0.128 µM (active)
same,EC50,[4],> 60 µM (inconclusive)
N#CCCn1c(=O)cnc2cnc(OCc3ccccc3)nc21,AC50,Cytochrome P450 2C19,inconclusive
COc1cccc(Cn2c(=O)c(-c3ccccc3)nc3cnc(N4CCN(C)CC4)nc32)c1,AC50,Cytochrome P450 3A4,31.6 µM (inconclusive)
Cc1ccc(CNC(=O)[C@H]2C[C@@H]2[C@H](NP(=O)(c2ccccc2)c2ccccc2)c2ccccc2)c(F)c1F,AC50,Cytochrome P450 2C19; read-out: AC50,0.0398 µM (inconclusive)
CCN1CCN(c2ccc(S(=O)(=O)N3CCCCC3)cc2NC(=O)c2cc3ccccc3o2)CC1,EC50,[3],0.31 µM (active)
same,EC50,[4],> 30 µM (not active)
Cc1cccc(-n2cc(CN(C)Cc3nccn3C)c(-c3cccc(F)c3)n2)c1,EC50,[3],1.79 µM (active)
same,EC50,[4],11.8 µM (active)
same,AC50,[2],13.5 µM (active)
CC1(C)CCCN(C(=O)N2c3ccccc3Sc3ccccc32)C1,AC50,Cytochrome P450 2C9,15.8 µM (inconclusive)
CCOc1nc(NC(C)C)nc(NC(C)C)n1,AC50,Cytochrome P450 1A2,5.01 µM (inconclusive)
CCn1c(-c2ccccc2)cnc1S,EC50,[1],> 150 µM (not active)
same,EC50,Streptococcus,> 150 µM (not active)
CCCc1[nH]c2ccc(C#N)cc2c1CCC,AC50,[2],4.21 µM (active)
COc1ccccc1-c1nc(N2CCN(C)CC2)c2ccccc2n1,AC50,Cytochrome P450 3A4,31.6 µM (inconclusive)
COc1ccc(-c2nc3cnc(OC)nc3n(C3CC3)c2=O)cc1,AC50,Cytochrome P450 3A4,0.0501 µM (inconclusive)
CC(C)(C)NC[C@@H](O)COc1cccc2[nH]c(C#N)cc12,AC50,Cytochrome P450 1A2,31.6 µM (inconclusive)
COc1ccccc1-c1nc(NCc2ccccc2)c2ccccc2n1,AC50,Cytochrome P450 2C19; read-out: AC50,25.1 µM (inconclusive)
COc1ccc(NS(=O)(=O)c2cccc(C(=O)NC3CCN(Cc4ccccc4)CC3)c2)cc1,EC50,[3],0.318 µM (active)
same,EC50,[4],> 30 µM (not active)
CCOC(=O)c1c(NC(=O)Nc2ccccc2)sc(C)c1C,AC50,Cytochrome P450 3A4,25.1 µM (inconclusive)
CCn1c(C)nc2cc(C(=O)NNS(=O)(=O)c3ccccc3F)ccc21,AC50,Cytochrome P450 2C9,20 µM (inconclusive)
CCCc1nnc(NC(=O)C(CC)OC(=O)c2cc(C)nc3ccccc23)s1 (stereo unspecified),AC50,Cytochrome P450 2C19; read-out: AC50,15.8 µM (inconclusive)
same,AC50,Cytochrome P450 1A2,15.8 µM (inconclusive)
COc1cccc(-c2sc3ccc(OC)cc3c2-c2ccc(O)cc2)c1,AC50,[2],2.67 µM (active)
COc1cc(OC)cc(-c2sc3ccc(OC)cc3c2C#CCCO)c1,AC50,[2],4 µM (active)
Cc1cccc(OC(=O)CN2C(=O)C3C4CCC(C4)C3C2=O)c1C (stereo unspecified),AC50,Cytochrome P450 2C9,2 µM (inconclusive)
Cc1ccc(C2C(=O)N(C3CCCC3)CC(=O)N2CC2COc3ccccc3O2)cc1 (stereo unspecified),AC50,Cytochrome P450 1A2,39.8 µM (inconclusive)
COC(=O)N1CC(=O)N(OC)C1c1ccc(Cl)cc1Cl (stereo unspecified),AC50,Cytochrome P450 2C9,0.316 µM (inconclusive)
COC(=O)[C@@]1(Cc2ccccc2)[C@H]2c3cc(C(=O)N4CCCC4)n(CCO)c3C[C@H]2CN1C(=O)c1ccccc1,AC50,Cytochrome P450 2C19; read-out: AC50,0.00794 µM (inconclusive)
Cc1cc(C)cc(Oc2nn[nH]n2)c1,AC50,Cytochrome P450 2C9,7.08 µM (inconclusive)
CN(C)CCCN1c2ccccc2Sc2cnccc21,AC50,Cytochrome P450 1A2,0.501 µM (inconclusive)
COc1ccc(C)cc1NC(=O)c1ccc([N+](=O)[O-])cc1[N+](=O)[O-],EC50,[3],1.18 µM (active)
same,EC50,[4],> 60 µM (not active)
Cc1cc(C)n(C(=O)c2cc3c(s2)CCCC3)n1,AC50,Cytochrome P450 2C19; read-out: AC50,2.24 µM (inconclusive)
same,AC50,Cytochrome P450 3A4,39.8 µM (inconclusive)
COc1ccc(C(CCN)Cc2ccccc2)cc1 (stereo unspecified),EC50,[4],> 30 µM (not active)
N#CCCn1c(=O)cnc2cnc(N3CCOCC3)nc21,AC50,Cytochrome P450 2C19,inconclusive
COc1ccc(-n2c(=O)c(CCc3ccccc3)nc3cnc(N(C)C)nc32)cc1,AC50,Cytochrome P450 1A2,3.16 µM (inconclusive)
same,AC50,Cytochrome P450 3A4,3.16 µM (inconclusive)
CCCCCCCCCCCCN1[C@@H](CC(C)=O)c2cc(F)ccc2S1(=O)=O,AC50,[2],5.3 µM (active)
COC(=O)c1c(NC(=O)Cn2cc([N+](=O)[O-])cn2)sc2c1CCC2,AC50,Cytochrome P450 2C19; read-out: AC50,3.16 µM (inconclusive)
same,AC50,Cytochrome P450 2C9,3.55 µM (inconclusive)
CCn1c2ccccc2c2cc(/N=C3/SC(CC(=O)Nc4ccccc4OC)C(=O)N3C)ccc21 (stereo unspecified),AC50,Cytochrome P450 3A4,2.82 µM (inconclusive)
N[C@@H](Cn1oc(=O)[nH]c1=O)C(=O)O [QUISQUALATE],AC50,Cytochrome P450 1A2,39.8 µM (inconclusive)
same,AC50,Cytochrome P450 3A4,1 µM (inconclusive)
